Results on one molecule are retold here after patent publication US8389442B2, “N-phenyl-′(4-pyridyl)-azinyl!amine derivatives as plant protection agents” (Syngenta Crop Protection LLC, priority 2003, dated 2013).

A word on the melting point: it is the temperature of the solid-liquid transition. On to `COCC(C)Nc1cc(-c2ccnc(Nc3cccc(Cl)c3)c2)ccn1` (stereo not shown) [Compound A1.10, N*2′*-(3-Chloro-phenyl)-N*2*-(2-methoxy-1-methyl-ethyl)-[4,4′]bipyridinyl-2,2′-diamine], for which the melting point is 110 °C.
